Assay results as given in patent US20230374007A1, “COMPOUNDS AND THEIR USE IN TREATING CANCER” (AstraZeneca AB, priority 2020, published 2023).

Columns and labels:
[1] = target: T1, endogenous IKZF1 protein in NB4 cells (Homo sapiens, UniProt Q13422); assay: Endogenous Ikaros 1 (IKZF1) degradation assay (SDS-PAGE); type: cell-based; details: 1 μM and 10 μM, 20 h of treatment
T1 construct: the endogenous IKZF1 protein; endogenous in cells; host or cells: NB4

[2] = target: T2, cereblon (CRBN)—DNA damage protein 1 (DDB1) complex (Homo sapiens, UniProt Q96SW2); assay: Cereblon HTRF binding assay
T2 construct: encoding amino acid residues 1 to 442 (Uniprot Q96SW2); hexahistidine (N); thrombin cleavage site (N); made in house; host or cells: Sf9 insect cells (baculovirus co-infection)
T2 sequence (Q96SW2 with tags, fused parts or gaps): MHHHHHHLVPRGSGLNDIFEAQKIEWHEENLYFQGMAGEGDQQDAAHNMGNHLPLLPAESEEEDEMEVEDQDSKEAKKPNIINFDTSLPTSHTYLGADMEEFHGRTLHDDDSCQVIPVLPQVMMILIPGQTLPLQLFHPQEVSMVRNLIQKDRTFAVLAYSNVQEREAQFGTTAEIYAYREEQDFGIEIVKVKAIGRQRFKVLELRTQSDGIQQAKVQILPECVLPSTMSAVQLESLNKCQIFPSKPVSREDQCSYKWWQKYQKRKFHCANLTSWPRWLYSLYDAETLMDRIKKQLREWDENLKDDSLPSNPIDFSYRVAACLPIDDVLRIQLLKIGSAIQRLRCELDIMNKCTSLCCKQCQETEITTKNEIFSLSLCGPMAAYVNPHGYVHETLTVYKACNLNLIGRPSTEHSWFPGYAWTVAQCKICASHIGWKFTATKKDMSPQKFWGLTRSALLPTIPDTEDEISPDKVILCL
Summary of the method: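 Biotinylated His-tagged CRBN-DDB1 (0.2 nM, baculovirus-expressed) was combined with 0.2 nM terbium cryptate streptavidin and 2 nM Cy5-lenalidomide probe in 50 mM Tris-HCl pH 7.5, 100 mM NaCl, 1 mM TCEP, 500 μM EDTA, 0.01% Pluronic F127 for 2 h at r.t. HTRF ratio was normalized to plate controls. IC50 came from a Hill fit, given as mean of one or more experiments.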

[3] = target: T3, endogenous SALL4 protein in Kelly cells (Homo sapiens, UniProt Q9UJQ4); assay: Endogenous SALL4 degradation assay (SDS-PAGE); type: cell-based; details: 10 μM, 20 h of treatment
T3 construct: the endogenous SALL4 protein; endogenous in cells; host or cells: Kelly
T3 sequence (Q9UJQ4 whole entry): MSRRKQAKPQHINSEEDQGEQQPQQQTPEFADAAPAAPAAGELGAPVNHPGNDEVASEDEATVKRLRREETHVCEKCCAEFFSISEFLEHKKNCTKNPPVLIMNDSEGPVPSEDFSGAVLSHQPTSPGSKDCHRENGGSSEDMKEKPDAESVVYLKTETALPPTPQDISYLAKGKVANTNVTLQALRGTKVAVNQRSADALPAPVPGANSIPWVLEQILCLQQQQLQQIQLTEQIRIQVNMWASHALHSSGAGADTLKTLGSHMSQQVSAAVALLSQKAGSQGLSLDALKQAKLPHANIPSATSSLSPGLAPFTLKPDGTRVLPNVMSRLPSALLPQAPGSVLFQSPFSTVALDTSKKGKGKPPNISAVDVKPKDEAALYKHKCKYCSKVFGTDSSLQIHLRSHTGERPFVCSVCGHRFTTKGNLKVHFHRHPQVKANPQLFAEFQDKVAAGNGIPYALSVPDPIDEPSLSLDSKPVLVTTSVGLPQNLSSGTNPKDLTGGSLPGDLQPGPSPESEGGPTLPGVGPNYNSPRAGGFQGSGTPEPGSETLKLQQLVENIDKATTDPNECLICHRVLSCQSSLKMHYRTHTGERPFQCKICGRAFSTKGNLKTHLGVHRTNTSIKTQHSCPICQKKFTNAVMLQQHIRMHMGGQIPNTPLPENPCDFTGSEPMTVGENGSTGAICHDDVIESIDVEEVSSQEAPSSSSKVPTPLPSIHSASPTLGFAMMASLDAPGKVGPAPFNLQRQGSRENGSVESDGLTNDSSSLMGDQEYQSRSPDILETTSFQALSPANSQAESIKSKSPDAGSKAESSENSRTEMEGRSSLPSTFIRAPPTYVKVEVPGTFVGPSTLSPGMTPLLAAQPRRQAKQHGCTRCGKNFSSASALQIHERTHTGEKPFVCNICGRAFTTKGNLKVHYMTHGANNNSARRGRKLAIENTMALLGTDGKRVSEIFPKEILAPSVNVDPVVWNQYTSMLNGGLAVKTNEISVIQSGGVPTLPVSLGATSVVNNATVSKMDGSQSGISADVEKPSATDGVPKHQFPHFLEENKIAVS

[4] = target: T4, human BRD4 (amino acid residues 42 to 169) (Homo sapiens, UniProt O60885); assay: BRD4 surface plasmon resonance (SPR) assay; type: binding; details: biotinylated BRD4, 25° C., read-out: BRD4 Affinity Kd
T4 construct: encoding amino acid residues 42 to 169 (Uniprot 060885) of human BRD4; hexahistidine (N, cleaved yes); TEV cleavage site (N, cleaved yes); made in house; host or cells: E. coli BL21 Gold (DE3)

[5] = target: T5, BRD4 tagged to a HiBiT tag in HEK 293 cells (Homo sapiens, UniProt O60885); assay: HiBiT degradation assay; type: cell-based; details: for DC50: BRD4 degradation, HiBiT-BRD4 HEK 293 cells, 18 h; for Dmax: HEK293
T5 construct: at the N-terminus of endogenous BRD4; endogenous in cells
Experimental: Determination of PROTAC potency was determined in HEK 293 cells expressing BRD4 tagged to a HiBiT tag. To generate those cells, HiBiT tag (aminoacid sequence: […]) was inserted, via CRISPR CAS9 knock-in, at the N-terminus of endogenous BRD4.
To measure success of knock-in the cells were then tested for their level of luminescence. Finally a stable pool was generated from them. In a typical experiment, 14×10^3 cells are seed in the wells of a 384 well plate (white flat bottom, tissue culture ready, corning 781080) in 40 μL of culture medium (DMEM, 10% FBS and 2 mM Gln). Immediately after seeding, PROTAC compounds, diluted in DMSO solution, are added to the wells via ECHO 555 acoustic dispenser at the appropriate concentration. DMSO is used as a not active control and as normalization. In each plate a series of compounds of known DC50 are included as quality control. The 384 well plate is placed in an incubator at 37° C. and 5% CO2 for 18 h. At the end of the incubation period plates are removed from the incubator and the medium is replaced with 10 μL of PBS and 10 μL of complete NanoGlo HiBiT solution (Promega N3040, consisting of 9.7 μL of Lysis buffer, with 0.1 μL of LgBiT protein and 0.2 μL of nanoluciferase substrate). After 15 minutes of incubation at r.t., the luciferase activity of the plate is recorded in a luminometer. dBET6 (MCE® Cat. No.: HY-112588) was used for normalization when calculating Dmax.

T1 sequence (Q13422 whole entry): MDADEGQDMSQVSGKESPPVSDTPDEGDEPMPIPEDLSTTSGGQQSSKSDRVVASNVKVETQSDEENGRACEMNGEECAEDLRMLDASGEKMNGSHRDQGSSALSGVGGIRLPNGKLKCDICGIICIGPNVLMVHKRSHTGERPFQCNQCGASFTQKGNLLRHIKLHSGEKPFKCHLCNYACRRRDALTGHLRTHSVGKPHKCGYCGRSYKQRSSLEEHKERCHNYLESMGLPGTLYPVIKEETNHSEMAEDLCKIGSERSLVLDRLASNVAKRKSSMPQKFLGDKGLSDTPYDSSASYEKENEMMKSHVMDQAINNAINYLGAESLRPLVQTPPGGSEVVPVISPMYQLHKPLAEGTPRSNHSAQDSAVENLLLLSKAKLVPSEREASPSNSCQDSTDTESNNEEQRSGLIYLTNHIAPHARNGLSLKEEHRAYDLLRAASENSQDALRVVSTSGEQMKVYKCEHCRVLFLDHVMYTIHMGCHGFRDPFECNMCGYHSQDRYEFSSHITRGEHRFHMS

SMILES	IC50 [2]	also measured
O=C1CCN(c2cnc3cc[nH]c3c2)C(=O)N1 [Example 40, 1-(1H-Pyrrolo[3,2-b]pyridin-6-yl)dihydropyrimidine-2,4 (1H,3H)-dione]	186 nM	IKZF1 degradation [1]: no observable/meaningful IKZF1 degradation
O=C1CCN(c2ccc3cc[nH]c3c2)C(=O)N1 [Example 55, 1-(1H-Indol-6-yl)dihydropyrimidine-2,4 (1H,3H)-dione]	220 nM	IKZF1 degradation [1]: no observable/meaningful IKZF1 degradation; SALL4 degradation [3]: no observable/meaningful SALL4 degradation
Cn1ccc2ccc(N3CCC(=O)NC3=O)cc21 [Example 59, 1-(1-Methyl-1H-indol-6-yl)dihydropyrimidine-2,4 (1H,3H)-dione]	329 nM	SALL4 degradation [3]: no observable/meaningful SALL4 degradation
Cc1sc2c(c1C)C(c1ccc(Cl)cc1)=N[C@@H](CC(=O)NCCNC(=O)Cc1c[nH]c3cc(N4CCC(=O)NC4=O)ccc13)c1nnc(C)n1-2 [Example 127, (S)-2-(4-(4-Chlorophenyl)-2,3,9-trimethyl-6H-thieno[3,2-f][1,2,4]triazolo[4,3-a][1,4]-diazepin-6-yl)-N-(2-(2-(6-(2,4-dioxotetrahydropyrimidin-1 (2H)-yl)-1H-indol-3-yl)acetamido)ethyl)-acetamide]		Kd [4]: 13 nM; DC50 [5]: 198 nM; Dmax [5]: 97.2%
O=C1CCN(c2cncc3[nH]ccc23)C(=O)N1 [Example 17, 1-(1H-Pyrrolo[2,3-c]pyridin-4-yl)dihydropyrimidine-2,4 (1H,3H)-dione]	206 nM	IKZF1 degradation [1]: no observable/meaningful IKZF1 degradation
Cc1sc2c(c1C)C(c1ccc(Cl)cc1)=N[C@@H](CC(=O)NCCOCCOCCOCCOCCOCCOCCNC(=O)Cc1c[nH]c3cc(N4CCC(=O)NC4=O)ccc13)c1nnc(C)n1-2 [Example 129, (S)-2-(4-(4-Chlorophenyl)-2,3,9-trimethyl-6H-thieno[3,2-f][1,2,4]triazolo[4,3-a][1,4]-diazepin-6-yl)-N-(1-(6-(2,4-dioxotetrahydropyrimidin-1 (2H)-yl)-1H-indol-3-yl)-2-oxo-6,9,12,15,18,21-hexaoxa-3-azatricosan-23-yl)acetamide]		Kd [4]: 30 nM; DC50 [5]: 970 nM; Dmax [5]: 111%
CN1CCCc2ccc(N3CCC(=O)NC3=O)cc21 [Example 33, 1-(1-Methyl-1,2,3,4-tetrahydroquinolin-7-yl)dihydropyrimidine-2,4 (1H,3H)-dione]	762 nM	IKZF1 degradation [1]: no observable/meaningful IKZF1 degradation; SALL4 degradation [3]: no observable/meaningful SALL4 degradation
Nc1cccc2c1CN(C1CCC(=O)NC1=O)C2=O (stereo not drawn) [lenalidomide, reference compound]		IKZF1 degradation [1]: degradation of IKZF1 to an undetected level
O=C1CCN(c2ccc3cnoc3c2)C(=O)N1 [Example 39, 1-(Benzo[d]isoxazol-6-yl)dihydropyrimidine-2,4 (1H,3H)-dione]	82 nM	IKZF1 degradation [1]: no observable/meaningful IKZF1 degradation
O=C1CCN(c2cnc3ccoc3c2)C(=O)N1 [Example 37, 1-(Furo[3,2-b]pyridin-6-yl)dihydropyrimidine-2,4 (1H,3H)-dione]	3100 nM	
Cc1sc2c(c1C)C(c1ccc(Cl)cc1)=N[C@@H](CC(=O)NCCOCCOCCNC(=O)Cc1c[nH]c3cc(N4CCC(=O)NC4=O)ccc13)c1nnc(C)n1-2 [Example 128, (S)-2-(4-(4-Chlorophenyl)-2,3,9-trimethyl-6H-thieno[3,2-f][1,2,4]triazolo[4,3-a][1,4]-diazepin-6-yl)-N-(2-(2-(2-(2-(6-(2,4-dioxotetrahydropyrimidin-1 (2H)-yl)-1H-indol-3-yl)acetamido)-ethoxy)ethoxy)ethyl)acetamide]		Kd [4]: 19 nM; DC50 [5]: 1140 nM; Dmax [5]: 73.1%
Cc1cn(-c2ccc3cc[nH]c3c2)c(=O)[nH]c1=O [Example 15, 1-(1H-Indol-6-yl)-5-methylpyrimidine-2,4 (1H,3H)-dione]	10600 nM	
O=C1CCN(c2ccc3ncoc3c2)C(=O)N1 [Example 5, 1-(Benzo[d]oxazol-6-yl)dihydropyrimidine-2,4 (1H,3H)-dione]	6740 nM	
O=C1CCN(c2ccc3ccnn3c2)C(=O)N1 [Example 3, 1-(Pyrazolo[1,5-a]pyridin-6-yl)dihydropyrimidine-2,4 (1H,3H)-dione]	3280 nM	
O=C1CCN(c2cc3[nH]ccc3cc2F)C(=O)N1 [Example 60, 1-(5-Fluoro-1H-indol-6-yl)dihydropyrimidine-2,4 (1H,3H)-dione]	444 nM	
Cn1ccc2c(N3CCC(=O)NC3=O)ccc(N3CCNCC3)c21 [Example 125, 1-(1-Methyl-7-(piperazin-1-yl)-1H-indol-4-yl)dihydropyrimidine-2,4 (1H,3H)-dione]	458 nM	
CNC(=O)Cn1ccc2ccc(N3CCC(=O)NC3=O)cc21 [Example 68, 2-(6-(2,4-Dioxotetrahydropyrimidin-1 (2H)-yl)-1H-indol-1-yl)-N-methylacetamide]	2210 nM	
O=C1CCN(c2ccc3c(c2)CNC3)C(=O)N1 [Example 24, 1-(Isoindolin-5-yl)dihydropyrimidine-2,4 (1H,3H)-dione]	8980 nM	
O=C1CCC(N2C(=O)c3ccccc3C2=O)C(=O)N1 (stereo not drawn) [thalidomide, reference compound]		SALL4 degradation [3]: degradation of SALL4 to an undetected level
O=c1ccn(-c2ccc3cn(C4CCNCC4)nc3c2)c(=O)[nH]1 [Example 131, 1-(2-(Piperidin-4-yl)-2H-indazol-6-yl)pyrimidine-2,4 (1H,3H)-dione]	2130 nM	
CC(=O)N1CCC(n2ccc3ccc(N4CCC(=O)NC4=O)cc32)CC1 [Example 122, 1-(1-(1-Acetylpiperidin-4-yl)-1H-indol-6-yl)dihydropyrimidine-2,4 (1H,3H)-dione]	2120 nM	
Cn1ccc2c(N3CCC(=O)NC3=O)cc(N3CCNCC3)cc21 [Example 90, 1-(1-Methyl-6-(piperazin-1-yl)-1H-indol-4-yl)dihydropyrimidine-2,4 (1H,3H)-dione]	771 nM	
CN1CCN(c2ccc(N3CCC(=O)NC3=O)c3cc[nH]c23)CC1 [Example 124, 1-(7-(4-Methylpiperazin-1-yl)-1H-indol-4-yl)dihydropyrimidine-2,4 (1H,3H)-dione]	527 nM	
CN1CCC(n2cc3ccc(-n4ccc(=O)[nH]c4=O)cc3n2)CC1 [Example 132, 1-(2-(1-Methylpiperidin-4-yl)-2H-indazol-6-yl)pyrimidine-2,4 (1H,3H)-dione]	2160 nM	
O=c1[nH]c(=O)n(-c2ccc3cc[nH]c3c2)cc1F [Example 14, 5-Fluoro-1-(1H-indol-6-yl)pyrimidine-2,4 (1H,3H)-dione]	516 nM	
